Assay results taken from PubChem BioAssay (NCI).
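Growth conditions: 96-well plates. Treatment: test compound, 48 hours, 5 concentrations. Analysis: linear interpolation between bracketing concentrations; unreached endpoints set to highest concentration. TGI denotes the concentration required for complete inhibition of growth.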

Key:
Assay in all cases: NCI tumour cell line growth inhibition, 48 h
UACC-62 melanoma = system: UACC-62 melanoma
SF-295 CNS = system: SF-295 CNS
ACHN renal = system: ACHN renal
SF-268 CNS = system: SF-268 CNS
U251 CNS = system: U251 CNS
HL-60(TB) leukemia = system: HL-60(TB) leukemia
RPMI-8226 leukemia = system: RPMI-8226 leukemia
COLO 205 colon = system: COLO 205 colon
NCI-H23 lung = system: NCI-H23 lung
SK-OV-3 ovarian = system: SK-OV-3 ovarian
SK-MEL-5 melanoma = system: SK-MEL-5 melanoma
DU-145 prostate = system: DU-145 prostate
SNB-75 CNS = system: SNB-75 CNS
LOX IMVI melanoma = system: LOX IMVI melanoma
SNB-19 CNS = system: SNB-19 CNS
BT-549 breast = system: BT-549 breast
MOLT-4 leukemia = system: MOLT-4 leukemia
SK-MEL-2 melanoma = system: SK-MEL-2 melanoma
DMS 273 small cell lung = system: DMS 273 small cell lung
PC-3 prostate = system: PC-3 prostate

Cc1nc(-n2nc(-c3ccccc3)cc2-c2ccccc2)sc1C(=O)/C=C/c1ccc([N+](=O)[O-])cc1
TGI (UACC-62 melanoma): > 53.9 µM | TGI (SF-295 CNS): > 100 µM | TGI (ACHN renal): > 52 µM | TGI (SF-268 CNS): > 87.6 µM | TGI (U251 CNS): > 47.6 µM | TGI (HL-60(TB) leukemia): 55.9 µM | TGI (RPMI-8226 leukemia): 23.5 µM | TGI (COLO 205 colon): > 80.6 µM | TGI (NCI-H23 lung): > 54.9 µM | TGI (SK-OV-3 ovarian): > 100 µM | TGI (SK-MEL-5 melanoma): > 56.4 µM | TGI (DU-145 prostate): > 100 µM | TGI (SNB-75 CNS): > 67 µM | TGI (LOX IMVI melanoma): 52.5 µM | TGI (SNB-19 CNS): > 100 µM | TGI (BT-549 breast): 39.5 µM | TGI (MOLT-4 leukemia): 51.5 µM | TGI (SK-MEL-2 melanoma): > 100 µM | TGI (DMS 273 small cell lung): > 100 µM | TGI (PC-3 prostate): > 100 µM

CCc1cccc(C(C)CC)c1NC(=O)C(=O)Cc1nc2ccccc2o1 (stereo not given)
TGI (UACC-62 melanoma): > 50 µM | TGI (SF-295 CNS): > 50 µM | TGI (ACHN renal): > 50 µM | TGI (SF-268 CNS): > 50 µM | TGI (U251 CNS): > 50 µM | TGI (HL-60(TB) leukemia): > 50 µM | TGI (RPMI-8226 leukemia): > 50 µM | TGI (COLO 205 colon): > 50 µM | TGI (NCI-H23 lung): > 50 µM | TGI (SK-OV-3 ovarian): > 50 µM | TGI (SK-MEL-5 melanoma): > 50 µM | TGI (SNB-75 CNS): > 50 µM | TGI (LOX IMVI melanoma): > 50 µM | TGI (SNB-19 CNS): > 50 µM | TGI (MOLT-4 leukemia): > 42 µM | TGI (SK-MEL-2 melanoma): > 50 µM | TGI (DMS 273 small cell lung): > 50 µM

CC(C)(C)OC(=O)N1CC(C)(C)N2C(=O)C3(CCCO3)C12 (stereo not given)
TGI (UACC-62 melanoma): > 100 µM | TGI (SF-295 CNS): > 100 µM | TGI (ACHN renal): > 100 µM | TGI (SF-268 CNS): > 100 µM | TGI (U251 CNS): > 100 µM | TGI (HL-60(TB) leukemia): > 100 µM | TGI (RPMI-8226 leukemia): 53.1 µM | TGI (COLO 205 colon): > 100 µM | TGI (NCI-H23 lung): > 100 µM | TGI (SK-OV-3 ovarian): > 100 µM | TGI (SK-MEL-5 melanoma): > 100 µM | TGI (SNB-75 CNS): > 100 µM | TGI (LOX IMVI melanoma): > 100 µM | TGI (SNB-19 CNS): > 100 µM | TGI (MOLT-4 leukemia): > 100 µM | TGI (SK-MEL-2 melanoma): > 100 µM | TGI (DMS 273 small cell lung): > 100 µM

CSc1nc(NC2OCC(OC(C)=O)C(OC(C)=O)C2OC(C)=O)c2c(n1)OCC2=O (stereo not given)
TGI (UACC-62 melanoma): > 100 µM | TGI (SF-295 CNS): > 100 µM | TGI (ACHN renal): > 100 µM | TGI (SF-268 CNS): > 100 µM | TGI (U251 CNS): > 100 µM | TGI (HL-60(TB) leukemia): > 100 µM | TGI (RPMI-8226 leukemia): > 100 µM | TGI (COLO 205 colon): > 100 µM | TGI (NCI-H23 lung): > 100 µM | TGI (SK-OV-3 ovarian): > 100 µM | TGI (SK-MEL-5 melanoma): > 100 µM | TGI (SNB-75 CNS): > 100 µM | TGI (LOX IMVI melanoma): > 100 µM | TGI (SNB-19 CNS): > 100 µM | TGI (MOLT-4 leukemia): > 100 µM | TGI (SK-MEL-2 melanoma): > 100 µM | TGI (DMS 273 small cell lung): > 100 µM

CSc1ccc2c(cc1=O)C(NC(=O)c1ccccc1)CCc1cc(O)c(O)c(O)c1-2 (stereo not given)
TGI (UACC-62 melanoma): 25.7 µM | TGI (SF-295 CNS): > 100 µM | TGI (ACHN renal): > 100 µM | TGI (SF-268 CNS): > 100 µM | TGI (U251 CNS): 26.2 µM | TGI (HL-60(TB) leukemia): 38.2 µM | TGI (RPMI-8226 leukemia): 62.6 µM | TGI (COLO 205 colon): 73.4 µM | TGI (NCI-H23 lung): 24.7 µM | TGI (SK-OV-3 ovarian): > 100 µM | TGI (SK-MEL-5 melanoma): 12.7 µM | TGI (SNB-75 CNS): 8.42 µM | TGI (LOX IMVI melanoma): 30 µM | TGI (SNB-19 CNS): 27.1 µM | TGI (MOLT-4 leukemia): 54.2 µM | TGI (SK-MEL-2 melanoma): > 100 µM | TGI (DMS 273 small cell lung): > 100 µM

O=C(O[C@H]1[C@@H]2C=CO[C@@H](OC3OC(CO)C(O)C(O)C3O)[C@@H]2[C@@]2(CO)O[C@@H]12)c1ccc(O)c(O)c1 (stereo not given in full)
TGI (UACC-62 melanoma): > 100 µM | TGI (SF-295 CNS): > 100 µM | TGI (ACHN renal): > 100 µM | TGI (SF-268 CNS): > 100 µM | TGI (U251 CNS): > 100 µM | TGI (HL-60(TB) leukemia): > 100 µM | TGI (RPMI-8226 leukemia): > 100 µM | TGI (COLO 205 colon): > 100 µM | TGI (NCI-H23 lung): > 100 µM | TGI (SK-OV-3 ovarian): > 100 µM | TGI (SK-MEL-5 melanoma): > 100 µM | TGI (SNB-75 CNS): > 100 µM | TGI (LOX IMVI melanoma): > 100 µM | TGI (SNB-19 CNS): > 100 µM | TGI (MOLT-4 leukemia): > 100 µM | TGI (SK-MEL-2 melanoma): > 100 µM | TGI (DMS 273 small cell lung): > 100 µM
